Laboratory results as given in ChEMBL document CHEMBL1201862, “PubChem BioAssay data set” (2004).
The source made the active and inactive calls.

Key:
[1] = molecular target: Dual specificity tyrosine-phosphorylation-regulated kinase 1A (Rattus norvegicus, UniProt Q63470); format: biochemical, Homo sapiens
[2] = molecular target: Glucose-6-phosphate 1-dehydrogenase (Homo sapiens, UniProt P11413); assay: human G6PD enzyme inhibitors, dose response, selectivity assay for P. falciparum G6PD inhibitor project, biochemical, fluorescence (AID 504792); format: functional
[3] = molecular target: T1, Zinc finger protein mex-5 (Caenorhabditis elegans, UniProt Q9XUB2); assay: MEX-5/TCR-2 RNA interaction inhibitors, dose response, biochemical, C. elegans, fluorescence polarization (AID 1960)
T1 sequence (Q9XUB2 whole entry): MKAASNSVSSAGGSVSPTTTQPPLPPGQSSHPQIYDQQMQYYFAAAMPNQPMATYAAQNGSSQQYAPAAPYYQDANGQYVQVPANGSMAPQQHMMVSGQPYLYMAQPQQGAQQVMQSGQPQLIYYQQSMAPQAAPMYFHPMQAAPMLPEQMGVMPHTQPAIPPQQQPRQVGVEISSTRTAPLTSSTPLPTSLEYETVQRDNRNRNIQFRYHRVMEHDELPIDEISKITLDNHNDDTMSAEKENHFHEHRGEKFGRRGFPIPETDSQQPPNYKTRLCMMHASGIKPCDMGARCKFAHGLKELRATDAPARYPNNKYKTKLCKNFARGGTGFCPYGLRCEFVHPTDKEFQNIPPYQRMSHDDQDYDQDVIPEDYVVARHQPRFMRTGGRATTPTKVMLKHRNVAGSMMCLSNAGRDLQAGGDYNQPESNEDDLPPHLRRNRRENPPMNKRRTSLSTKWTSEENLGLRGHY

[4] = molecular target: T2, RNA-binding protein pos-1 (Caenorhabditis elegans, UniProt G5EF15); assay: inhibitors of POS-1/mex-3 RNA binding, dose response, biochemical, fluorescence polarization (AID 1964);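 also: purified POS-1 fused to maltose binding protein made in E. coli; potency of compounds blocking POS-1 binding to fluorescent RNA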
T2 sequence (G5EF15 whole entry): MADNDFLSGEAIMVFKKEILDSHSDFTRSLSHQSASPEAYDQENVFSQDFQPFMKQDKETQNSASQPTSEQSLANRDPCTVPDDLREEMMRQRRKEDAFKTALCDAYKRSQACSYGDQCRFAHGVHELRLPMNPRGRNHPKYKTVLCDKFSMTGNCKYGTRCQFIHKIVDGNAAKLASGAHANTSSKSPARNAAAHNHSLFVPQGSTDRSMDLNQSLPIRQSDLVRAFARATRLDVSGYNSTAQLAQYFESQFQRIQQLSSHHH

INS1 = assay: beta cell apoptosis inhibitors, cytokine rescue, dose response, luminescence, retest (AID 449756); format: functional, cell-based; details: Rattus norvegicus, INS1;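 also: cell death triggered by IL-1 beta plus TNF-alpha plus IFN-gamma mixture; protective hits raise ATP signal compared with cytokine alone wells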
Large T antigen = Large T antigen (Simian virus 40, UniProt P03070); format: functional, Betapolyomavirus macacae;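 also: Confirmatory-stage PubChem screen for compounds that inhibit SV40 T antigen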
[5] = molecular target: T3, Mannose-6-phosphate isomerase (Homo sapiens, UniProt P34949); assay: human PMI inhibitors, high substrate, primary screen, biochemical, fluorescence intensity, high mannose 6-phosphate (AID 1220)
T3 sequence (P34949 whole entry): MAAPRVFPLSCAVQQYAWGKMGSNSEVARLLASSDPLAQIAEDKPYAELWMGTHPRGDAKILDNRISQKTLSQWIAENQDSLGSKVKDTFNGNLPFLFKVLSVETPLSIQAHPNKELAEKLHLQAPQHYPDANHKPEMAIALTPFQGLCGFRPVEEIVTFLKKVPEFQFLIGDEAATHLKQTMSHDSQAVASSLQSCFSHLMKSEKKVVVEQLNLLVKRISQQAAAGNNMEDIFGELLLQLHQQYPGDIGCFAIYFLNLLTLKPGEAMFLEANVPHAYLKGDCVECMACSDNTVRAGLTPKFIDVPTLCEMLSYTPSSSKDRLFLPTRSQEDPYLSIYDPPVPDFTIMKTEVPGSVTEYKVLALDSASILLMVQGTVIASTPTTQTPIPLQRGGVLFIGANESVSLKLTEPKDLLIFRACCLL

[6] = molecular target: T4, Rac GTPase-activating protein 1 (Homo sapiens, UniProt Q9H0H5); assay: MgcRacGAP GTPase-activating activity inhibitors, confirmation, biochemical, ADP Hunter fluorescence, primary and confirmatory (AID 624330); format: functional
T4 sequence (Q9H0H5 whole entry): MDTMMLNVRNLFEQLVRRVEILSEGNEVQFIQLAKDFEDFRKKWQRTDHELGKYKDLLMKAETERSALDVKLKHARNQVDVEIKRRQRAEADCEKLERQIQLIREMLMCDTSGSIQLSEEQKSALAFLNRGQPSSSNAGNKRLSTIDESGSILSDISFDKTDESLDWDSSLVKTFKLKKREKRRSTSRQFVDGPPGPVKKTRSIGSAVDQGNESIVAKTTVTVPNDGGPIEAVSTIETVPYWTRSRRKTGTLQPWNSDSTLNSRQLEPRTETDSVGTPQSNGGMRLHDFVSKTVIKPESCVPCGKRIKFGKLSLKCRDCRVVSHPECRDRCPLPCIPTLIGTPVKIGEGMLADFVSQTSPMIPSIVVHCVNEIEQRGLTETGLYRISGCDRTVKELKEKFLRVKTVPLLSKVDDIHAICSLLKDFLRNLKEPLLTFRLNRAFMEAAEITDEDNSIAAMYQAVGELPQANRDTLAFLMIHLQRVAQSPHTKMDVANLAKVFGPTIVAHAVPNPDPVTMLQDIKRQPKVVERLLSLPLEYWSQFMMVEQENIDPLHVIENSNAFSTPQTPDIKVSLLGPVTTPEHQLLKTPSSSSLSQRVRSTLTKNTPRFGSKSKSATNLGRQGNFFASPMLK

Genome polyprotein = Genome polyprotein (dengue virus type 2, UniProt P29990); assay: Dengue-2 NS5 methyltransferase inhibitors, primary screen, biochemical, confirmation dose response (AID 588689); format: functional
[7] = cytotoxicity toward NIH3T3 fibroblasts, dose response, counter-screen, cell-based, ATP luminescence, mouse fibroblasts (AID 2010); format: functional;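 also: cells exposed to compound for about 90 hours before reading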
[8] = molecular target: DNA dC->dU-editing enzyme APOBEC-3A (Homo sapiens, UniProt P31941); assay: APOBEC3A DNA deaminase inhibitors, dose response, biochemical (AID 504722); format: functional
[9] = molecular target: T5, Voltage-gated N-type calcium channel alpha-1B subunit/Amyloid beta A4 precursor protein-binding family A member 1 (Homo sapiens, UniProt Q00975+Q02410); format: protein assay
Ion channel NompC = Ion channel NompC (Danio rerio, UniProt Q7T1G6); assay: Dose response cell-based high-throughput screening assay for agonists of the transient receptor potential channel N1 (TRPN1). [Related pubchem assays (depositor defined):AID1424, AID1448]; format: functional
[10] = molecular target: T5, Voltage-gated N-type calcium channel alpha-1B subunit/Amyloid beta A4 precursor protein-binding family A member 1; format: protein assay; remark: listed apart in the source
[11] = inhibitors of intracellular T. cruzi replication, confirmation, NIH3T3 host cells, beta-gal luminescence (AID 2044); format: functional, cell-based;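 also: intracellular parasites grown in NIH/3T3 mouse fibroblasts as host cells; luminescent beta-galactosidase reporter signal from transgenic T. cruzi replicating inside host cells; inhibitors lower the luminescence signal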
Mucolipin-3 = molecular target: T6, Mucolipin-3 (Homo sapiens, UniProt Q8TDD5); assay: Fluorescence counterscreen assay for […] agonists: dose response cell-based high-throughput screening assay to identify agonists of the transient receptor potential channel ML3 (TRPML3). [Related pubchem assays: 1424, 1448 ]; format: functional
T6 sequence (Q8TDD5 whole entry): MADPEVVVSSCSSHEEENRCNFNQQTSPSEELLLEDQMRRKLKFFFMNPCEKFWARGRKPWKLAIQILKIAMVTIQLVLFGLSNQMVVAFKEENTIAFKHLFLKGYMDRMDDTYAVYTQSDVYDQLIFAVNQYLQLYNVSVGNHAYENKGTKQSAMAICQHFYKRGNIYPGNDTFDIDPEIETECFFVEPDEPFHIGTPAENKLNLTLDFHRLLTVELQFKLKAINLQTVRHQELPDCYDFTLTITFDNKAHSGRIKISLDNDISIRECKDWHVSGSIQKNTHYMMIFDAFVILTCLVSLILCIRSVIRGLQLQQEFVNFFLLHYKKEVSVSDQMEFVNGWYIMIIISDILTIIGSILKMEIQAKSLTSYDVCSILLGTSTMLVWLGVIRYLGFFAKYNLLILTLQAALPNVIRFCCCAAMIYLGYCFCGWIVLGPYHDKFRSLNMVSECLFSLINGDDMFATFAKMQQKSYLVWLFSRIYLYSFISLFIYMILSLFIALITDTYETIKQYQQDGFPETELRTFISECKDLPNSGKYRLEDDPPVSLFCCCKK

[12] = molecular target: DNA dC->dU-editing enzyme APOBEC-3G (Homo sapiens, UniProt Q9HC16); assay: Dose Response confirmation of small molecule APOBEC3G DNA Deaminase Inhibitors via a fluorescence-based single-stranded DNA deaminase assay. [Related pubchem assays (depositor defined):AID493012, AID493028]; format: functional
Sequence of DNA dC->dU-editing enzyme APOBEC-3G (Q9HC16 whole entry): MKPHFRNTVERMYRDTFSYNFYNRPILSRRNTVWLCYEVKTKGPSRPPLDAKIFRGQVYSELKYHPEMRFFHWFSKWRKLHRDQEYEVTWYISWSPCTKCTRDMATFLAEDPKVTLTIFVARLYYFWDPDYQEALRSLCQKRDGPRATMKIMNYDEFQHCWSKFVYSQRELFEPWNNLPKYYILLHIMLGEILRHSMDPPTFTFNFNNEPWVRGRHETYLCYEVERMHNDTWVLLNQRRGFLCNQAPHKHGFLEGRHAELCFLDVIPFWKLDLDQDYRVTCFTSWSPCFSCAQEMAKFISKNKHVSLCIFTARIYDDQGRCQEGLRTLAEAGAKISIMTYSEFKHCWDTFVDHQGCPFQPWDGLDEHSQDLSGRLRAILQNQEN

Sequence of Glucose-6-phosphate 1-dehydrogenase (P11413 whole entry): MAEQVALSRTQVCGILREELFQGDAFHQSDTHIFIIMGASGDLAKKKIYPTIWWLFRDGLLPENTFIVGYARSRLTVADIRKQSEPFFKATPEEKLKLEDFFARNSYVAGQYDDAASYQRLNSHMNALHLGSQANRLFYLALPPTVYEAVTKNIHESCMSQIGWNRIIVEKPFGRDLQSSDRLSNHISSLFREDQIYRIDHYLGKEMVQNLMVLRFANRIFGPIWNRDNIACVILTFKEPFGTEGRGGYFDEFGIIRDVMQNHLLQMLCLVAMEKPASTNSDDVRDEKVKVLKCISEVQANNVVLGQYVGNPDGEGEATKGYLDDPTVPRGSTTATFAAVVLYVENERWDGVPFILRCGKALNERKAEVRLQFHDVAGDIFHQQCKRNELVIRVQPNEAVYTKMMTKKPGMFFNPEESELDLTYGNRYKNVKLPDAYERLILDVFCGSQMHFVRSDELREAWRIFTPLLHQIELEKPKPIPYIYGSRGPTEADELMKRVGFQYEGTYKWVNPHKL
T5 sequence (Q00975 whole entry): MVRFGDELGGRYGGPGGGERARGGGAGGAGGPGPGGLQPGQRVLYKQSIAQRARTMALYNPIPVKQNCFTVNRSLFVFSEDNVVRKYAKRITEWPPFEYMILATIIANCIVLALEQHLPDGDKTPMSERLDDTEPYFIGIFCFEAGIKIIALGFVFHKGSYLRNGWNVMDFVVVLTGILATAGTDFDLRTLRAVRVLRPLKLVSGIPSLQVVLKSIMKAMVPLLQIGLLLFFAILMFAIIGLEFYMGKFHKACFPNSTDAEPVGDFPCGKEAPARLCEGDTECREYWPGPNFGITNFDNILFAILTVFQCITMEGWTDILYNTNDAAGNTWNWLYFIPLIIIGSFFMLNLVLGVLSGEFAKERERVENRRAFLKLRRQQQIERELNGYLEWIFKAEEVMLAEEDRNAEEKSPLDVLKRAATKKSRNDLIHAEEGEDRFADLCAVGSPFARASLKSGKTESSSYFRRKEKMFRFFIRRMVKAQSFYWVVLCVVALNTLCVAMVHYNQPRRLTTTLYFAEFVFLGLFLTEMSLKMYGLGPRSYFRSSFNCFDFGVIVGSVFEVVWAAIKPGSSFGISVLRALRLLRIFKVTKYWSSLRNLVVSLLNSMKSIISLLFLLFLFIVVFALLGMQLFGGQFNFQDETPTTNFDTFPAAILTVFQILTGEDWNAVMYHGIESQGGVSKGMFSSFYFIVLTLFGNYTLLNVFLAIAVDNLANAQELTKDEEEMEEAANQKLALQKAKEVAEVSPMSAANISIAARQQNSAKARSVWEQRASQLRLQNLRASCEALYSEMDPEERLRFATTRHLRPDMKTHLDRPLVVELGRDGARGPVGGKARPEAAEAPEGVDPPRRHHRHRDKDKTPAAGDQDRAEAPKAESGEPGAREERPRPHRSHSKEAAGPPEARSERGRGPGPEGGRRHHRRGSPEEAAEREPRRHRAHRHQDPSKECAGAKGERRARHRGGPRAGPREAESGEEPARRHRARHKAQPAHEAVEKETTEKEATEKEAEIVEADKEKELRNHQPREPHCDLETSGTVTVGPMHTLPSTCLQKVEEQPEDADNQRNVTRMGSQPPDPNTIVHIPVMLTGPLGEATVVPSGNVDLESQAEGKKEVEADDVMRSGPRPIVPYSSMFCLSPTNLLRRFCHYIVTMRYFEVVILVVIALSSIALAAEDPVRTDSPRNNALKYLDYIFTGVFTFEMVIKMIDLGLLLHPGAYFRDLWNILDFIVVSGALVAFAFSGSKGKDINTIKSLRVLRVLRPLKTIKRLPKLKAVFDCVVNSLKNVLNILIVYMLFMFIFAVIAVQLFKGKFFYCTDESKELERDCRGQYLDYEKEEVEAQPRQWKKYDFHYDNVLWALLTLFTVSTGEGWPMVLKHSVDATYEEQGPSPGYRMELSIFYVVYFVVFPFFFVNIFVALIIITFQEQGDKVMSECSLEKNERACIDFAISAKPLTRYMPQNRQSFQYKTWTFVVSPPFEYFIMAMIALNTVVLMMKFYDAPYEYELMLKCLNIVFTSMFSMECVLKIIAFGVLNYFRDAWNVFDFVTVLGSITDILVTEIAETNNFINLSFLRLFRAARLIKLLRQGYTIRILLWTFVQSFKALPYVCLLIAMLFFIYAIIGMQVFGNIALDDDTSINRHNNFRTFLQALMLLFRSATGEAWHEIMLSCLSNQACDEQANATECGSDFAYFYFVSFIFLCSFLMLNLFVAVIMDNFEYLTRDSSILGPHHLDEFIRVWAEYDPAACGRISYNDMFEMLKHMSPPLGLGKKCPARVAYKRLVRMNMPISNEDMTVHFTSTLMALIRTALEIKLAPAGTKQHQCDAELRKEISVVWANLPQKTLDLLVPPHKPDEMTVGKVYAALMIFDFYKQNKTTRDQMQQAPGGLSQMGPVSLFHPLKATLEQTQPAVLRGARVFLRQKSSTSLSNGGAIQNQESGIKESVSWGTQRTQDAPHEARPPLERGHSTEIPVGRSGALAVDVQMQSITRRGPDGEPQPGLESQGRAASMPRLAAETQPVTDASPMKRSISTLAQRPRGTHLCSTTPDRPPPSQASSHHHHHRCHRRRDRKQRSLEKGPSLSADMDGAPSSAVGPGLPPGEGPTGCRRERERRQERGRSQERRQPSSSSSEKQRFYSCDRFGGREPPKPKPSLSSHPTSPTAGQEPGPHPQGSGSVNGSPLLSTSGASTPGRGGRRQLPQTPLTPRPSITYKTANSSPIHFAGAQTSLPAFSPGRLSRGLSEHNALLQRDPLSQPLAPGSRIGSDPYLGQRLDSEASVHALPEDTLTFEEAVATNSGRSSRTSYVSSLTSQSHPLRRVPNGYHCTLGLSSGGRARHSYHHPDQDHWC
T5 sequence (Q02410 whole entry): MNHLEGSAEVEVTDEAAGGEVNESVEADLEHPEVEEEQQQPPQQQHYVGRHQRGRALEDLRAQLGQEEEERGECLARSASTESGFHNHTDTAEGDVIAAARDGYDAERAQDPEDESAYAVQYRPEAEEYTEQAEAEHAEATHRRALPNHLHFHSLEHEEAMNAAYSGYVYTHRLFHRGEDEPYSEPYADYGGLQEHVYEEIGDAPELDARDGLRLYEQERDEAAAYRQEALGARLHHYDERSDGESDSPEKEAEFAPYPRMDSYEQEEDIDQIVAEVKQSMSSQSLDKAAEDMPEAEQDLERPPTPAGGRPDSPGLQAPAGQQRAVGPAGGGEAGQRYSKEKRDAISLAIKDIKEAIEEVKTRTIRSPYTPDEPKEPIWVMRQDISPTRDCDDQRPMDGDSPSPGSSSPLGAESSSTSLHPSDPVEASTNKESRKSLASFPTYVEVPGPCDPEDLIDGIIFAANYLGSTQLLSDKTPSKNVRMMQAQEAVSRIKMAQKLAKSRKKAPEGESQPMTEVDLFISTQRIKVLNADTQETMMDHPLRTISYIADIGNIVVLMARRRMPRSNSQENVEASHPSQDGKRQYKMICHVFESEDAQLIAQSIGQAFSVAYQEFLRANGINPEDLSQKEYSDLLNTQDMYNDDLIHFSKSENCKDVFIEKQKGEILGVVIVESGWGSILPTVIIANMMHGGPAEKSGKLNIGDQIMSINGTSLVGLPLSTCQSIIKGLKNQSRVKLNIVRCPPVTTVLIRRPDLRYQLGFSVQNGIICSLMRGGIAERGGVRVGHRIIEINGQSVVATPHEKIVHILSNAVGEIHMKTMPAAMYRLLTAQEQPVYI
Sequence of Large T antigen (P03070 whole entry): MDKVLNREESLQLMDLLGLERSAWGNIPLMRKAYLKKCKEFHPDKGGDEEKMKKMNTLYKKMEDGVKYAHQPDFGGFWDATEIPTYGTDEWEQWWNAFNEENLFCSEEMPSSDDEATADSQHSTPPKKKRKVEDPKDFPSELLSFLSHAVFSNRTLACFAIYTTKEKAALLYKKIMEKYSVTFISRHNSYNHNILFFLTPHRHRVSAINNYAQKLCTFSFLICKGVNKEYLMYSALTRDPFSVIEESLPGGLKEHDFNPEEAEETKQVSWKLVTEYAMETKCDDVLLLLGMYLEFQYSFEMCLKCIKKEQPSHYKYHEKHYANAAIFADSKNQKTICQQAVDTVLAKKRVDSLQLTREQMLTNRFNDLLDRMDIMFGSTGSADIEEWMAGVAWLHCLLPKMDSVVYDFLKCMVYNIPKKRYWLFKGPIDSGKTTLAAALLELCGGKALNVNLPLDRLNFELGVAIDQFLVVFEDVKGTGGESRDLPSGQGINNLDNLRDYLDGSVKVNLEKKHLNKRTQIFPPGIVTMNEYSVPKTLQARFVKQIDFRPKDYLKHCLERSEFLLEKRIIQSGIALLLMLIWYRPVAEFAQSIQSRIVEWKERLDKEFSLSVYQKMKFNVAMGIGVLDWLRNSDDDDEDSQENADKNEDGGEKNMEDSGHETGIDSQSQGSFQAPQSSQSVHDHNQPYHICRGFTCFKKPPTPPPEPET
Sequence of DNA dC->dU-editing enzyme APOBEC-3A (P31941 whole entry): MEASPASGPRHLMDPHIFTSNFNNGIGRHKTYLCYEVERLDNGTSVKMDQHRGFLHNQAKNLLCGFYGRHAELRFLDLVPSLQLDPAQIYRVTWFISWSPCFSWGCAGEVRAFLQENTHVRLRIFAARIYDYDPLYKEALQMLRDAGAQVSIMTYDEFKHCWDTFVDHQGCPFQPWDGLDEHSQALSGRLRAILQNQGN

With `c1cncc(-c2csc(-c3cccnc3)n2)c1` the AC50 [1] was 0.676 µM (active).
With `O=S(=O)(Nc1cc(Sc2cccc3cccnc23)c(O)c2ccccc12)c1ccc(F)cc1` the IC50 [2] was > 80 µM (inactive), the EC50 [3] was 40.1 µM (active) and the EC50 [4] was > 300 µM (not active). For the same molecule, the AC50 (INS1) was 1.21 µM (active).
In the case of `Cc1c(N=C2C=C(Br)C(=O)C(Br)=C2)c(=O)n(-c2ccccc2)n1C`, the IC50 [2] was 58.4 µM (inactive), the IC50 (Large T antigen) was 27 µM (active) and the IC50 [5] was > 50 µM (not active). The IC50 [6] was 52.2 µM (active) and the IC50 (Genome polyprotein) was 82.5 µM (active).
With `c1cncc(-c2ccc3[nH]ccc3c2)c1` the AC50 [1] was 6.97 µM (active).
With `Cc1cc(C)c2c(=O)n(CC(=O)Nc3cccc(Cl)c3C)sc2n1` the EC50 [7] was 7.73 µM (active), the IC50 [2] was 46.5 µM (inactive) and the IC50 [8] was > 100 µM (inactive). The IC50 [9] was 17.8 µM (active), the IC50 (Large T antigen) was 9.03 µM (active) and the EC50 (Ion channel NompC) was > 29.9 µM (inactive). The IC50 [10] was > 50 µM (inactive), the EC50 [11] was 1.65 µM (active) and the EC50 (Mucolipin-3) was > 29.9 µM (not active). For the same molecule, the IC50 [12] was 6.83 µM (active).
